Test results from article PMC11851430, “Workflow for E3 Ligase Ligand Validation for PROTAC Development” (ACS Chemical Biology, 2025).

Assays:
full-length AAK1 = full-length AAK1 (Homo sapiens, UniProt Q2M2I8); test: NanoBRET target engagement assay, intact and permeabilized cells
Description: Compounds were pipetted at various concentrations using an Echo acoustic dispenser (Labcyte), immediately followed by Tracer K10 (Promega, Tracer DB ID: T000008) for AAK1 and Aurora A and VHL Tracer (Promega, Tracer DB ID: T000019) for VHL, at an optimum KD concentration chosen from TracerDB ( tracerdb.org), respectively.
To measure the BRET signal, the NanoBRET® NanoGlo Substrate (Promega:
N1573) was added as per the manufacturer’s protocol, and filtered luminescence was measured on a PHERAstar plate reader (BMG Labtech) equipped with a luminescence filter pair (450 nm BP filter (donor) and 610 nm LP filter (acceptor)). For NanoBRET® measurement in permeabilized cells, 25 nL of digitonin (0.05 μg/μL) was pipetted into each well using an
After incubation, the BRET signals were measured by a PHERAstar plate reader (BMG Labtech) following the same procedure as intact NanoBRET® measurement. Competitive displacement data were then normalized to controls and were plotted using GraphPad Prism 9 software employing a normalized 3-parameter curve fit with the following equation:

MARK4A = molecular target: T1, MARK4A (Homo sapiens, UniProt Q96L34); test: DSF assay; assay type: binding; details: 20 µM compound
T1 construct: purchased in-house DSF panel (SGC-style construct names; the trailing A/B is a construct suffix)
T1 sequence (Q96L34 59-310): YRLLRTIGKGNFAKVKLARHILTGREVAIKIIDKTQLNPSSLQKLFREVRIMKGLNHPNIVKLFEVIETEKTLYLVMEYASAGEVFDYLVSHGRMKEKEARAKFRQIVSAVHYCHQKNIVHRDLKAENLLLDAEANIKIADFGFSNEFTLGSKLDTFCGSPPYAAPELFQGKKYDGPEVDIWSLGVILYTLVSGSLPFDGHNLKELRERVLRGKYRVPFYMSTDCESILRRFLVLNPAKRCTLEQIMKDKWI

STK17A = molecular target: T2, STK17A (Homo sapiens, UniProt Q9UEE5); test: DSF assay; assay type: binding; details: 20 µM compound
T2 construct: purchased in-house DSF panel (SGC-style construct names; the trailing A/B is a construct suffix)
T2 sequence (Q9UEE5 61-321): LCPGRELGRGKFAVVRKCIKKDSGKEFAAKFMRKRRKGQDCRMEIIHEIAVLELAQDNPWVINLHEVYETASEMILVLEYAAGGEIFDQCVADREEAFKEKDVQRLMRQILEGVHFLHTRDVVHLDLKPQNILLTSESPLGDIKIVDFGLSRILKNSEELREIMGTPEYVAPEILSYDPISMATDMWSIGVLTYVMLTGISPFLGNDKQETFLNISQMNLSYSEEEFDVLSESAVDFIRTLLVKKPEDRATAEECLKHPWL

ABL1A = molecular target: T3, ABL1A (Homo sapiens, UniProt P00519); test: DSF assay; assay type: binding; details: 20 µM compound
T3 construct: purchased in-house DSF panel (SGC-style construct names; the trailing A/B is a construct suffix)
T3 sequence (P00519 229-512): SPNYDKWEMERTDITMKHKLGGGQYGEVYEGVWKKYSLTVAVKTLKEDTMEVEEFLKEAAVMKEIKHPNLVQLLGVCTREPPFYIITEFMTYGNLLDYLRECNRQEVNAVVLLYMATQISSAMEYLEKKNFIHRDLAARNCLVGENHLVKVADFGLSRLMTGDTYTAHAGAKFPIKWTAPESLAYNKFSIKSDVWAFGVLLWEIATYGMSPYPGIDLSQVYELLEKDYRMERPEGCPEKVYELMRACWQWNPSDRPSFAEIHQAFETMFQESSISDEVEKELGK

[1] = system: kinase protein levels in MCF-7 cells; test: TMT-labeled quantitative proteomics; assay type: cell-based, human; details: for kinase degradation: MCF-7 cells, 6 h
Description: (§1) 50 µl of SDS Lysis Buffer (2% SDS, 50 mM TRIS pH 8.5, 10 mM TCEP, 40 mM CAA) was added to each sample. Cells were transferred into low binding reaction tubes (Eppendorf:
(§2) Methanol/Chloroform Precipitation. 200 µl of methanol and 50 µl of chloroform were added to each sample reaction tube and mixed via vortex. 150 µl of milliQ-H2O were added and samples were vortexed further. Samples were centrifuged for 5 minutes at 15000 g and the aqueous layer above the interphase was removed. 150 µl of methanol was added, samples were vortexed and centrifuged for 10 minutes at 15000 g to precipitate the pellet. The aforementioned wash procedure was repeated twice before transferring the pellet to a new low bind reaction tube in which it was allowed to dry for 5 minutes.
(§3) Dissolving the Protein Pellet and Protein Quantification. 50 µl of digestion buffer (8 M Urea, 50 mM TRIS pH 8) was added to each sample before vortexing and shaking at 750 rpm at room temperature for 10 minutes to solubilize the pellet. Protein quantification via PierceTM […]
(§4) Protein Digestion. Samples were diluted 1:2 with 50 mM TRIS pH 8.5 to reach a final concentration of 4 M Urea. Lys-C (Promega: VA1170) was added at a 1:100 enzyme/substrate ratio. Samples were agitated at 550 rpm and 37 °C for 3 h. Samples were further diluted with 50 mM TRIS pH 8.5 to a final concentration of 1 M Urea and Trypsin (Promega: V5280) was added at a 1:100 enzyme/substrate ratio. Samples were agitated overnight at 550 rpm and 37 °C. The digestion was stopped the following day via addition of TFA to a final concentration […]
(§5) Solid Phase Extraction via C18 Cartridges. Sep-Pak C18 Cartridges (Waters: WAT054955) were used for solid phase extraction of digested peptides. For preconditioning of C18 cartridges, 1 mL of methanol was added to each column followed by 1 mL of solution B (0.1% formic acid, 80% acetonitrile) and 1 mL of solution A (0.1% formic acid, ddH2O) twice. Samples […]
(§6) were loaded to their respective columns and once samples had passed, columns were washed twice with solution A to remove unwanted components from the loading step. Elution of samples was carried out via introduction of 40% and 60% acetonitrile steps. Samples were dried and snap frozen in liquid nitrogen.
(§7) TMT-Labeling. Desalted peptides were dried and resuspended in TMT-labeling buffer (200 mM EPPS pH 8.2, 20% acetonitrile). 10 μg of peptides per condition were subjected to TMT labeling with 1:2.5 peptide TMT ratio (w/w) for 1 h at room temperature. The labeling reaction was quenched by addition of hydroxylamine to a final concentration of 0.5% and incubation at room temperature for 15 minutes. Successful TMT labeling was verified by mixing equimolar ratios of peptides and subjecting the mix to single shot LC-MS/MS analysis. For high pH reversed phase fractionation on a Dionex analytical HPLC, 50 µg of pooled and purified TMT labelled samples were resuspended in 10 mM ammonium-bicarbonate (ABC), 5% acetonitrile, and separated on a 250 mm long C18 column (Aeris Peptide XB-C18, 4.6 mm ID, 2.6 µm particle size; Phenomenex) using a multistep gradient from 100% solvent A (5% acetonitrile, 10 mM ABC in water) to 60% solvent B (90% acetonitrile, 10 mM ABC in water) over 70 minutes. Eluting peptides were collected every 45 seconds into a total of 96 fractions, which were cross-concatenated into 24 fractions and dried in a vacuum concentrator and resuspended in 3% acetonitrile with 0.1% TFA for LC-MS analysis.
(§8) Mass spectrometry data acquisition. Tryptic peptides were analyzed on an Orbitrap Lumos coupled to an easy nLC 1200 (ThermoFisher Scientific) using a 35 cm long, 75 µm ID fused-silica column packed in house with 1.9 µm C18 particles (Reprosil pur, Dr. Maisch), and kept at 50 °C using an integrated column oven (Sonation). HPLC solvents consisted of 0.1% formic acid in water (buffer A) and 0.1% formic acid and 80% acetonitrile in water (buffer B). Assuming

VHL = VHL (Homo sapiens, UniProt P40337); test: cell-based; set-up: full-length, NanoLuc fusion (Promega N2741); species or system HEK293T; NanoBRET VHL tracer displacement in permeabilized cells, NanoLuc-VHL fusion; details: permeabilized cells; read-out: VHL permeabilized (IC50±sd)/µM
VHL, sequence (P40337 whole entry, the tested form may be a part): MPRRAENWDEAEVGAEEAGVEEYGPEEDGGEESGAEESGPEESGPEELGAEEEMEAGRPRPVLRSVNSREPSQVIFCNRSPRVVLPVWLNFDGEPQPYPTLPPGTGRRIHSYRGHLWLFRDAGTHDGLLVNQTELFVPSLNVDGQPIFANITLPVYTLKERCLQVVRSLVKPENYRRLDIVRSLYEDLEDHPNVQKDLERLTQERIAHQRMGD

[2] = molecular target: T4, kinase protein levels in MCF-7 cells (Homo sapiens, UniProt A0A096LP01); test: TMT-labeled quantitative proteomics; assay type: cell-based
T4 construct: endogenous in cells; host or cells: MCF-7
T4 sequence (A0A096LP01 whole entry): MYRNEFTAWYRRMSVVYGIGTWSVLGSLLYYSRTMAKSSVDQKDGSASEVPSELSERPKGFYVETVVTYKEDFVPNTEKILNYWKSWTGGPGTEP
Description: as §1, §2, §3, §4, §5, §6, §7, §8

[3] = AAK1 intact (IC50±sd)/μM, NanoBRET, intact cells, mean of duplicates, ^a values estimated by extrapolation
[4] = AAK1 permeabilized (IC50±sd)/μM, NanoBRET, permeabilized cells, mean of duplicates
[5] = protein NBPF19;NBPF15;NBPF8;NBPF10;NBPF26;NBPF14, MCF7, 1 µM, set1.1
[6] = protein NUDT4, MCF7, 1 µM, set1.1
[7] = protein LINC00493, MCF7, 2.5 µM, set3
[8] = protein LINC00493, MCF, 0.25µM, set4
[9] = protein NBPF19;NBPF8;NBPF10;NBPF15;NBPF26;NBPF14;NBPF1;NBPF12, MCF, 0.25µM, set4
[10] = protein NBPF19;NBPF8;NBPF26;NBPF14;NBPF12;NBPF10;NBPF15;NBPF1, MCF7, 2.5 µM, set3
[11] = protein NUDT4;NUDT11;NUDT10, MCF, 0.25µM, set4
[12] = protein UQCRHL;UQCRH, MCF, 0.25µM, set4
[13] = protein LINC00493, MCF7, 1 µM, set5
[14] = protein SMIM26, MCF7, 1 µM, set2

full-length AAK1, sequence (Q2M2I8 whole entry): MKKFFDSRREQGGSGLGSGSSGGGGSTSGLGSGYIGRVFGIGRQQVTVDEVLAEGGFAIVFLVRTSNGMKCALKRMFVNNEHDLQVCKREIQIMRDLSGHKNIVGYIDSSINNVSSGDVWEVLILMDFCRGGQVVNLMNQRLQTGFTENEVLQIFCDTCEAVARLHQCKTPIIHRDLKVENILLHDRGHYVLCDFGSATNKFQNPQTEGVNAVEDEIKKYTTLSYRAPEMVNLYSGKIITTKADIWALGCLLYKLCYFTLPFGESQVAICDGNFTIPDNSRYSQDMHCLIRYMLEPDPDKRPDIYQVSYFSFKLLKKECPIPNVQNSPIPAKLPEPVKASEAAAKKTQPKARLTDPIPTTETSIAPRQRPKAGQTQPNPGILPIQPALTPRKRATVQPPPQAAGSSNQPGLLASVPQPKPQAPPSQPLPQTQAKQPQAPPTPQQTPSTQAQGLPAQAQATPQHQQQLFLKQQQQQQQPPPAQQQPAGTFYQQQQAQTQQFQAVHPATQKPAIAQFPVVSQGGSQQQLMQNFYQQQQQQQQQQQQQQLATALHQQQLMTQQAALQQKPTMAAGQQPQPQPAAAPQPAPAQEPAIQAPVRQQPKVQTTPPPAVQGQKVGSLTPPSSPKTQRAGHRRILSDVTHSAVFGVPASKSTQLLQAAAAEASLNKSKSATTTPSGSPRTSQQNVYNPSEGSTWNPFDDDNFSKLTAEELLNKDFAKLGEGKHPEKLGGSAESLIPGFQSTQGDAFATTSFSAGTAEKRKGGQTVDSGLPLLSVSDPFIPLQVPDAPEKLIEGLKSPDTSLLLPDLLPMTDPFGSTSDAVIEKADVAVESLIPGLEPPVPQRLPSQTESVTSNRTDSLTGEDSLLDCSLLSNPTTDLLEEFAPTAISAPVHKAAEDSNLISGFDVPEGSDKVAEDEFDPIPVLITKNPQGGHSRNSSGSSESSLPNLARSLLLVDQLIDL

SMILES | IC50 (full-length AAK1; [3]) | IC50 (full-length AAK1; [4]) | kinase degradation ([1]; 1 μM) | log2FC (compound/DMSO) [1, 5] | log2FC (compound/DMSO) [1, 6] | IC50 (VHL) | P.Value (compound/DMSO) [2, 7] | log2FC (compound/DMSO) [2, 7] | P.Value (compound/DMSO) [2, 8] | log2FC (compound/DMSO) [2, 8] | kinase degradation ([1]; 0.25 μM) | kinase degradation ([1]; 2.5 μM) | log2FC (compound/DMSO) [1, 9] | log2FC (compound/DMSO) [1, 10] | log2FC (compound/DMSO) [1, 11] | log2FC (compound/DMSO) [1, 12] | further results
CC(C)(C)OC(=O)NCCCOCCOCCOCCCNC(=O)c1cc(Nc2cc(C3CC3)[nH]n2)nc(Nc2ccc(CC#N)cc2)n1 [5-L] | 0.308 ± 0.032 µM | 0.07 ± 0.012 µM |  |  |  |  |  |  |  |  |  |  |  |  |  |  | ΔTm at 20 µM (MARK4A): 3.21 °C; ΔTm at 20 µM (STK17A): 5.46 °C; ΔTm at 20 µM (ABL1A): 6.31 °C
Cc1ncsc1-c1ccc(CNC(=O)[C@@H]2C[C@@H](O)CN2C(=O)[C@@H](NC(=O)CCOCCOCCNC(=O)c2cc(Nc3cc(C4CC4)[nH]n3)nc(Nc3ccc(CC#N)cc3)n2)C(C)(C)C)cc1 [5-a] | ~8.76 µM | 0.162 ± 0.002 µM | did not result in significant degradation of any kinase | -0.2083 | -0.05063 | 1.22 ± 0.665 µM |  |  |  |  |  |  |  |  |  |  | AAK1 intact (IC50±sd)/μM (full-length AAK1; NanoBRET, intact cells, mean of duplicates, ^a values estimated by extrapolation): single-digit micromolar; cell permeability / cell penetration (full-length AAK1; as shown by the NanoBRET data (intact vs permeabilized cells)): poor cell permeability
Cc1ncsc1-c1ccc(CNC(=O)[C@@H]2C[C@@H](O)CN2C(=O)[C@@H](NC(=O)CCOCCOCCOCCOCCN2CCN(c3ccc(Nc4ncc(Cl)c(Nc5ccccc5C(N)=O)n4)cc3)CC2)C(C)(C)C)cc1 [6-b] | 0.13 ± 0.003 µM | 0.055 ± 0.002 µM | significant degradation of several kinases | -0.7206 | -0.1525 | 1.41 ± 0.083 µM | 0.00484 | -0.4049 | 0.5319 | -0.03906 | Few kinases were degraded | the number of degraded kinases was again lower | -0.06617 | -0.2581 | 0.182 | 0.8692 | 
Cc1ncsc1-c1ccc(CNC(=O)[C@@H]2C[C@@H](O)CN2C(=O)[C@@H](NC(=O)CCCCCCN2CCN(c3ccc(Nc4ncc(Cl)c(Nc5ccccc5C(N)=O)n4)cc3)CC2)C(C)(C)C)cc1 [6-d] | 0.1 ± 0.008 µM | 0.053 ± 0.003 µM | significant degradation of several kinases |  |  | 5.83 ± 1.43 µM |  |  |  |  |  |  |  |  |  |  | P.Value (compound/DMSO) [2, 13]: 0.0001847; log2FC (compound/DMSO) [2, 13]: -0.9636; log2FC (compound/DMSO) ([1]; protein ARHGEF5;ARHGEF35, MCF7, 1 µM, set5): 0.09474; log2FC (compound/DMSO) ([1]; protein NBPF19;NBPF15;NBPF8;NBPF10;NBPF3;NBPF11;NBPF26;NBPF14;NBPF1;NBPF12, MCF7, 1 µM, set5): -0.4722
Cc1ncsc1-c1ccc(CNC(=O)[C@@H]2C[C@@H](O)CN2C(=O)[C@@H](NC(=O)CCOCCOCCOCCN2CCN(c3cc(Nc4cc(C5CC5)[nH]n4)nc(Nc4ccc(CC#N)cc4)n3)CC2)C(C)(C)C)cc1 [4-a] | 0.21 ± 0.044 µM | 0.057 ± 0.004 µM | significant degradation of several kinases | -0.3973 | -0.04751 | 1.13 ± 0.132 µM | 0.002092 | 0.3781 | 0.1285 | 0.1013 | Few kinases were degraded | the number of degraded kinases was again lower | 0.1164 | 0.132 | 0.003804 | 0.8375 | 
CC(C)(C)OC(=O)NCCOCCOCCOCCOCCC(=O)N1CCN(c2cc(Nc3cc(C4CC4)[nH]n3)nc(Nc3ccc(CC#N)cc3)n2)CC1 [4-L] | 0.099 ± 0.011 µM | 0.023 ± 0.004 µM |  |  |  |  |  |  |  |  |  |  |  |  |  |  | ΔTm at 20 µM (MARK4A): 6.16 °C; ΔTm at 20 µM (STK17A): 8.17 °C; ΔTm at 20 µM (ABL1A): 11.3 °C
CC(=O)N[C@H](C(=O)N1C[C@H](O)C[C@H]1C(=O)NCc1ccc(-c2scnc2C)cc1OCCOCCOCCOCCNC(=O)c1cc(Nc2cc(C3CC3)[nH]n2)nc(Nc2ccc(CC#N)cc2)n1)C(C)(C)C [5-b] | 0.299 ± 0.038 µM | 0.192 ± 0.005 µM | did not result in significant degradation of any kinase |  |  | 0.972 ± 0.094 µM |  |  |  |  |  |  |  |  |  |  | P.Value (compound/DMSO) [2, 14]: 0.1541; log2FC (compound/DMSO) [2, 14]: -0.1317
CC(=O)N[C@H](C(=O)N1C[C@H](O)C[C@H]1C(=O)NCc1ccc(-c2scnc2C)cc1OCCOCCOCCOCCOCCC(=O)N1CCN(c2ccc(Nc3ncc(Cl)c(Nc4ccccc4C(N)=O)n3)cc2)CC1)C(C)(C)C [6-e] | 0.53 ± 0.246 µM | 0.123 ± 0.02 µM | did not result in significant degradation of any kinase |  |  | 1.4 ± 0.174 µM | 0.7735 | 0.04253 | 0.8916 | -0.008166 | no significantly degraded kinases were detected | no significantly degraded kinases were detected | 0.2043 | 0.155 | -0.054 | -0.5234 | P.Value (compound/DMSO) [2, 14]: 0.2313; log2FC (compound/DMSO) [2, 14]: -0.1331
